Assays:
Type in all cases: cell-based
[1] = target: T1, human muscarinic M4 receptor (Homo sapiens, UniProt P08173); test: Alphascreen Surefire phospho-ERK1/2 functional assay, CHO cells expressing M4; settings: for Emax: CHO, read-out: % Emax cf. ACh, M4; for EC50: agonist, CHO cells, phospho-ERK1/2, read-out: pEC50 M4 (converted)
T1 construct: expressed in transfected cells
T1 sequence (P08173 1-479): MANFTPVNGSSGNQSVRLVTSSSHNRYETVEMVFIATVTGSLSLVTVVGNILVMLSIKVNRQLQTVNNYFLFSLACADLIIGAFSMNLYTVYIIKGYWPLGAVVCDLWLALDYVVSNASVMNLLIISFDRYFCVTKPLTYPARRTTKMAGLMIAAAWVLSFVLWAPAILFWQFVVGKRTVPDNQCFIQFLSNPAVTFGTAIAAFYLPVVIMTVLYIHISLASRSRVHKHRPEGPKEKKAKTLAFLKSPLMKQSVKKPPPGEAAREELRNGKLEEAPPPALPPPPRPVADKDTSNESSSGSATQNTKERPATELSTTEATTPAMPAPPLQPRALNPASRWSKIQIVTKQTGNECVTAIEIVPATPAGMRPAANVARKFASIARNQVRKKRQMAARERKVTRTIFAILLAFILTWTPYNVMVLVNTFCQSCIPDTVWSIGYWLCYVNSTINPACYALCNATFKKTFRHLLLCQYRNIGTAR
Experimental: (§1) ERK1/2 phosphorylation is a downstream consequence of both Gq/11 and Gi/o protein coupled receptor activation, making it highly suitable for the assessment of M1, M3 (Gq/11 coupled) and M2, M4 receptors (Gi/o coupled), rather than using different assay formats for different receptor subtypes. CHO cells stably expressing the human muscarinic M1, M2, M3 or M4 receptor were plated (25K/well) onto 96-well tissue culture plates in MEM-alpha+10% dialysed FBS. Once adhered, cells were serum-starved overnight. Agonist stimulation was performed by the addition of 5 μL agonist to the cells for 5 min (37° C.). Media was removed and 50 μL of lysis buffer added. After 15 min, a 4 μL sample was transferred to 384-well plate and 7 μL of detection mixture added.

[2] = target: T2, human muscarinic M2 receptor (Homo sapiens, UniProt P08172); test: Alphascreen Surefire phospho-ERK1/2 functional assay, CHO cells expressing M2; settings: for Emax: CHO, read-out: % Emax cf. ACh, M2; for EC50: agonist, CHO cells, phospho-ERK1/2, read-out: pEC50 M2 (converted)
T2 construct: expressed in transfected cells
T2 sequence (P08172 1-466): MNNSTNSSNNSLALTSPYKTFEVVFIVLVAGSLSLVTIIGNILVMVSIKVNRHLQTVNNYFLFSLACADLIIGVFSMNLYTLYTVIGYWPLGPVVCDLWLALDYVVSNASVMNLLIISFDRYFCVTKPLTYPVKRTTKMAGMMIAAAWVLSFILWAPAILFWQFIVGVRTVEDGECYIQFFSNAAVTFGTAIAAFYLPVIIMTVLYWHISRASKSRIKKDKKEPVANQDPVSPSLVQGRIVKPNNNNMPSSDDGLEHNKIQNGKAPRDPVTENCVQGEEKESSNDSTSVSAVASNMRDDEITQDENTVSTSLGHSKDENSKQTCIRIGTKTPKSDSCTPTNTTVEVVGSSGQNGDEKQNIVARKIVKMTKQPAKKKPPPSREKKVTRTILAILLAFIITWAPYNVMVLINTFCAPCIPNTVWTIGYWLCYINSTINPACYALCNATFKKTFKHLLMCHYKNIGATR
Experimental: as §1

[3] = target: T3, human muscarinic M3 receptor (Homo sapiens, UniProt P20309); test: Alphascreen Surefire phospho-ERK1/2 functional assay, CHO cells expressing M3; settings: for Emax: CHO, read-out: % Emax cf. ACh, M3; for EC50: agonist, CHO cells, phospho-ERK1/2, read-out: pEC50 M3 (converted)
T3 construct: expressed in transfected cells
Experimental: as §1

[4] = target: T4, human muscarinic M1 receptor (Homo sapiens, UniProt P11229); test: Alphascreen Surefire phospho-ERK1/2 functional assay, CHO cells expressing M1; settings: for Emax: CHO, read-out: % Emax cf. ACh, M1; for EC50: agonist, CHO cells, phospho-ERK1/2, read-out: pEC50 M1 (converted)
T4 construct: expressed in transfected cells
T4 sequence (P11229 1-460): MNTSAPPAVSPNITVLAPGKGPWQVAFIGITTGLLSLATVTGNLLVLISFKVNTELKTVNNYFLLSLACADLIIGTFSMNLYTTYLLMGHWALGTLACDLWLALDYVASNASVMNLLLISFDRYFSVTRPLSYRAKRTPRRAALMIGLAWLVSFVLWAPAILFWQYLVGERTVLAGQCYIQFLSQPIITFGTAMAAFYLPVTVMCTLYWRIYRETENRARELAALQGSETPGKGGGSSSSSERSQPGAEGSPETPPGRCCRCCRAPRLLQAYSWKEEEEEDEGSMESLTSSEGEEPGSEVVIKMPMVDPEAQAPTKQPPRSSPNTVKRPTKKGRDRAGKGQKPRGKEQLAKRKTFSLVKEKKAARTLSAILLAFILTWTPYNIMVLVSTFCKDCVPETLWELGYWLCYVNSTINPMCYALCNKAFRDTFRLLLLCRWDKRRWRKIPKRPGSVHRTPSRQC
Experimental: as §1

T3 sequence (P20309 whole entry): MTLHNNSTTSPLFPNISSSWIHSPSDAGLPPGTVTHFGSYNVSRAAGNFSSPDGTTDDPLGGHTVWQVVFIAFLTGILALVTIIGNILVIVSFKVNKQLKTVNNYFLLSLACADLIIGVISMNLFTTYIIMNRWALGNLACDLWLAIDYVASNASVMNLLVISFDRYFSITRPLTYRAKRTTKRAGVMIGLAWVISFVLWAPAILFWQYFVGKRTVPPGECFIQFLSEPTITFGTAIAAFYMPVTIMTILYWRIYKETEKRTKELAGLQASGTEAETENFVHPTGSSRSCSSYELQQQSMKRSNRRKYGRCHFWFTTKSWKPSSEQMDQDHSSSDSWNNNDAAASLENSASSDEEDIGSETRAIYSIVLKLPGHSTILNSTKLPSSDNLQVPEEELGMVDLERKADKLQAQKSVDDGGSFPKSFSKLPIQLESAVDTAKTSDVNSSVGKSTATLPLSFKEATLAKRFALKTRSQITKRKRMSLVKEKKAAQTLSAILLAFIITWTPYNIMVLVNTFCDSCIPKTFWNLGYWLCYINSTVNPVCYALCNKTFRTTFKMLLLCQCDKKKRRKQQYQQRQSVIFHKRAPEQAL

CCOC(=O)N1CC2(CCC(N3CCC(N4C(=O)CC[C@@H]4CC)CC3)C2)C1 (mixture of isomers) [Example 2-6 (mixture of isomers), Ethyl 6-{4-[(2S)-2-ethyl-5-oxopyrrolidin-1-yl]piperidin-1-yl}-2-azaspiro[3.4]octane-2-carboxylate]
Emax [1]: 59%
EC50 [1]: 7.94 nM
Emax [2]: 8%
EC50 [2]: > 20000 nM
Emax [3]: 13%
EC50 [3]: > 20000 nM
Emax [4]: 71%
EC50 [4]: 15.8 nM

CCOC(=O)N1CC2(CCC(N3CCC(n4cccn4)CC3)C2)C1 (racemic) [Example 2-3 (racemic), Ethyl 6-[4-(1H-pyrazol-1-yl)piperidin-1-yl]-2-azaspiro[3.4]octane-2-carboxylate]
Emax [1]: 94%
EC50 [1]: 1 nM
Emax [2]: 2%
EC50 [2]: > 20000 nM
Emax [3]: 5%
EC50 [3]: > 20000 nM
Emax [4]: 105%
EC50 [4]: 3.98 nM

COC(=O)N1CC2(CC(N3CCC(c4nccn4C)CC3)C2)C1 [Example 1-1, Methyl 6-[4-(1-methyl-1H-imidazol-2-yl)piperidin-1-yl]-2-azaspiro[3.3]heptane-2-carboxylate]
Emax [1]: 73%
EC50 [1]: 316 nM
Emax [4]: 113%
EC50 [4]: 3160 nM

COC(=O)N1CC2(CCC(N3CCC(c4nccn4C)CC3)C2)C1 (racemic) [Example 2-1 (racemic)]
Emax [1]: 82%
EC50 [1]: 15.8 nM
Emax [2]: 17%
EC50 [2]: > 20000 nM
Emax [3]: 9%
EC50 [3]: > 20000 nM
Emax [4]: 42%
EC50 [4]: 126 nM

CCOC(=O)N1CC2(CC(N3CCC(N4CCC[C@@H]4c4cn(C)c(=O)o4)CC3)C2)C1 [Example 1-7, Ethyl 6-{4-[(2R)-2-(3-methyl-2-oxo-2,3-dihydro-1 ,3-oxazol-5yl)pyrrolidin-1-yl]piperidin-1-yl}-2-azaspiro[3.3]heptane-2-carboxylate]
Emax [1]: 49%
EC50 [1]: 39.8 nM
Emax [2]: 10%
EC50 [2]: > 20000 nM
Emax [3]: 6%
EC50 [3]: > 20000 nM
Emax [4]: 12%
EC50 [4]: > 20000 nM

CCOC(=O)N1CC2(CCC(N3CCC(N4C(=O)CC[C@H]4C)CC3)C2)C1 (mixture of isomers) [Example 2-7 (mixture of isomers), Ethyl 6-{4-[(2R)-2-methyl-5-oxopyrrolidin-1-yl]piperidin-1-yl}-2-azaspiro[3.4]octane-2-carboxylate]
Emax [1]: 69%
EC50 [1]: 3.98 nM
Emax [2]: 9%
EC50 [2]: > 20000 nM
Emax [3]: 53%
EC50 [3]: > 20000 nM
Emax [4]: 71%
EC50 [4]: 39.8 nM

CCOC(=O)N1CC2(CCC(N3CCC([C@@H]4CCCN4C(=O)NC)CC3)C2)C1 (mixture of isomers) [Example 2-4 (mixture of isomers), Ethyl 6-{4-[(2S)-1-(methylcarbamoyl)pyrrolidin-2-yl]piperidin-1-yl}-2-azaspiro[3.4]octane-2-carboxylate]
Emax [1]: 56%
EC50 [1]: 3.16 nM
Emax [2]: 4%
EC50 [2]: > 20000 nM
Emax [3]: 2%
EC50 [3]: > 20000 nM
Emax [4]: 39%
EC50 [4]: > 20000 nM

CCOC(=O)N1CC2(CCC(N3CCC(N4CCC[C@@H]4c4cnco4)CC3)C2)C1 (single isomer, unassigned) [Example 2-12 (Isomer 2)]
Emax [1]: 114%
EC50 [1]: 1 nM
Emax [2]: 7%
EC50 [2]: > 20000 nM
Emax [3]: 5%
EC50 [3]: > 20000 nM
Emax [4]: 50%
EC50 [4]: 31.6 nM

CCOC(=O)N1CC2(CC(N3CCC(N4CCCC4c4ccon4)CC3)C2)C1 (racemic) [Example 1-5 (racemic), ethyl 6-{4-[2-(1,2-oxazol-3-yl)pyrrolidin-1-yl]piperidin-1-yl}-2-azaspiro[3.3]heptane-2-carboxylate]
Emax [1]: 64%
EC50 [1]: 39.8 nM
Emax [2]: 67%
EC50 [2]: > 20000 nM
Emax [3]: 10%
EC50 [3]: > 20000 nM
Emax [4]: 18%
EC50 [4]: > 20000 nM

CCOC(=O)N1CC2(CCC(N3CCC(N4C(=O)CC[C@H]4CC)CC3)C2)C1 (mixture of isomers) [Example 2-9 (mixture of isomers), Ethyl 6-{4-[(2R)-2-ethyl-5-oxopyrrolidin-1-yl]piperidin-1-yl}-2-azaspiro[3.4]octane-2-carboxylate]
Emax [1]: 123%
EC50 [1]: 3.16 nM
Emax [2]: 11%
EC50 [2]: > 20000 nM
Emax [3]: 8%
EC50 [3]: > 20000 nM
Emax [4]: 100%
EC50 [4]: 39.8 nM

CCOC(=O)N1CC2(CC(N3CCC(N4CC(F)(F)C[C@@H]4CO)CC3)C2)C1 [Example 1-12, Ethyl 6-{4-[(2R)-4,4-difluoro-2-(hydroxymethyl)pyrrolidin-1-yl]piperidin-1-yl}-2-azaspiro[3.3]heptane-2-carboxylate]
Emax [1]: 88%
EC50 [1]: 31.6 nM
Emax [2]: 7%
EC50 [2]: > 20000 nM
Emax [3]: 11%
EC50 [3]: > 20000 nM
Emax [4]: 63%
EC50 [4]: 251 nM

COC(=O)N1CC2(CCC(N3CCC(N4CCC[C@@H]4c4cnco4)CC3)C2)C1 (single isomer, unassigned) [Example 2-11 (Isomer 2)]
Emax [1]: 100%
EC50 [1]: 79.4 nM
selectivity for the M4 receptor relative to the M1 receptor ([1]; statement in words): highly selective for the M4 receptor relative to the M1 receptor
Emax [2]: 6%
EC50 [2]: > 20000 nM
Emax [3]: 4%
EC50 [3]: > 20000 nM
Emax [4]: 24%
EC50 [4]: > 20000 nM

CCOC(=O)N1CC2(CC(N3CCC(N4C(=O)CC[C@@H]4C)CC3)C2)C1 [Example 1-8, Ethyl 6-{4-[(2S)-2-methyl-5-oxopyrrolidin-1-yl]piperidin-1-yl}-2-azaspiro[3.3]heptane-2-carboxylate]
Emax [1]: 78%
EC50 [1]: 200 nM
Emax [4]: 67%
EC50 [4]: 794 nM

CCOC(=O)N1CC2(CC(N3CCC(N4C(=O)CC[C@H]4C)CC3)C2)C1 [Example 1-9]
Emax [1]: 117%
EC50 [1]: 158 nM
Emax [4]: 101%
EC50 [4]: 1580 nM

CCOC(=O)N1CC2(CC(N3CCC(c4nccn4C)CC3)C2)C1 [Example 1-2, Ethyl 6-[4-(1-methyl-1H-imidazol-2-yl)piperidin-1-yl]-2-azaspiro[3.3]heptane-2-carboxylate]
Emax [1]: 100%
EC50 [1]: 1260 nM
Emax [4]: 100%
EC50 [4]: 10000 nM

CCOC(=O)N1CC2(CC(N3CCC(N4CCC[C@@H]4c4cnco4)CC3)C2)C1 [Example 1-6]
Emax [1]: 105%
EC50 [1]: 12.6 nM
Emax [2]: 4%
EC50 [2]: > 20000 nM
Emax [3]: 16%
EC50 [3]: > 20000 nM
Emax [4]: 67%
EC50 [4]: 631 nM

CCOC(=O)N1CC2(CCC(N3CCC(N4CC(F)(F)C[C@@H]4CO)CC3)C2)C1 (mixture of isomers) [Example 2-10 (mixture of isomers), Ethyl 6-{4-[(2R)-4,4-difluoro-2-(hydroxymethyl)pyrrolidin-1-yl]piperidin-1-yl}-2-azaspiro[3.4]octane-2-carboxylate]
Emax [1]: 32%
EC50 [1]: 6.31 nM
Emax [4]: 6%
EC50 [4]: > 20000 nM
